Reference: patent US4302448A, “Secretin preparations with intensified and protracted action, process for their manufacture, their use as well as dihydroxybenzoyl-L-tyrosine” (Hoechst Aktiengesellschaft, priority 1979, dated 1981)
Where a SMILES comes first, the peptide text is derived from it. Side-chain parts run from the residue outwards. [ ]: non-standard residue; d: D form. The star is where a group is joined. Cbz = O=C(OCc1ccccc1)*

Test system: Pancreatic juice secretion of the rat
Assay: Pancreatic juice secretion of the rat after subcutaneous administration of secretin with depot bodies
Type: in vivo
Conditions: for Δ% vs. control (percentage by which the pancreatic secretion is above the basal secretion after 5 hours) / Rel. Intensity of effect over 5 hours (total pancreatic juice secretion over 5 hours as compared with control): rat, subcutaneous, 5 CU/kg secretin + 10 mg depot body/animal; for Δ% vs. control (percentage by which the pancreatic secretion is above the basal secretion after 5 hours): control=100%, measure of depot effect; for Rel. Intensity of effect over 5 hours (total pancreatic juice secretion over 5 hours as compared with control): control (0.9% of NaCl)=1
Procedure: Secretin preparations for subcutaneous application which contained the depot bodies specified in the following Table were tested in animal experiments. In the experimental procedure chosen, 5 to 8 male rats weighing 300 to 500 g each are administered subcutaneously 5 CU/kg of secretin (CU means clinical unit) and 10 mg of the depot body to be tested each in aqueous solution or suspension.
The animals remain without food for 18 hours prior to the test, but they are given water ad libitum. Under urethane anaesthesia (5 ml/kg i.m. of 25% urethane) the abdomen is opened by median section after tracheotomy, and the pylorus is ligated. The ductus choledochus is tied off in its proximal part near the porta hepatis, and the bile is led into the duodenum via a polyethylene tube of a diameter of […]. A cannula or catheter is inserted into the distal part of the bile duct, into which the numerous pancreatic ducts open, immediately before it opens into the duodenum, and the volume of the secretion running off is measured in 60 minute intervals. Following a preliminary run of 60 minutes the preparations are administered.
L means the compound known from literature and characterized by the melting point, optionally UV, IR or NMR. A to C relate to the preparation according to Example 1, process A to C. These compounds were characterized by ultimate analysis. The third column indicates the percentage by which the pancreatic secretion is above the basal secretion after 5 hours (calculated on the control=100%). This value is a measure for the depot effect of the depot body tested. Column 4 indicates the intensification of the secretin effect, with the total pancreatic juice secretion having been given over 5 hours as compared with the control (0.9% of NaCl)=1.

Compound	Δ% vs. control (percentage by which the pancreatic secretion is above the basal secretion after 5 hours) [%]	Rel. Intensity of effect over 5 hours (total pancreatic juice secretion over 5 hours as compared with control)	protracted and intensified action of secretin (in words) (subcutaneous secretin preparations with depot body)
O=C(NCCNC(=O)c1ccc(O)cc1O)c1ccc(O)cc1O [Bis-(2,4-dihydroxybenzoyl-)-diaminoethane]	69	6.5	–
O=C(N[C@@H](Cc1ccc(O)cc1)C(=O)NCCCC[C@H](NC(=O)[C@H](Cc1ccc(O)cc1)NC(=O)c1cc(O)cc(O)c1)C(=O)N(CCO)CCO)c1cc(O)cc(O)c1 [Nα,Nε-Bis(3,5-dihydroxybenzoyl-L-tyrosyl)-L-lysine-diethanol-amide]	86	8.8	–
O=C(N[C@@H](Cc1ccc(O)cc1)C(=O)NCCCC[C@@H](NC(=O)[C@H](Cc1ccc(O)cc1)NC(=O)OCc1ccccc1)C(=O)O)OCc1ccccc1 [Nα,Nε-Bis-(benzyloxycarbonyl-L-tyrosyl)-D-lysine] (Cbz-Tyr-[dK]([Tyr-Cbz])-OH)	13	1.5	–
NC(=O)[C@H](CCCCNC(=O)[C@H](Cc1ccc(O)cc1)NC(=O)OCc1ccccc1)NC(=O)[C@H](Cc1ccc(O)cc1)NC(=O)OCc1ccccc1 [Nα,Nε-Bis-(benzyloxycarbonyl-L-tyrosyl)-L-lysine-amide] (Cbz-Tyr-Lys([Tyr-Cbz])-NH2)	90	8.4	–
COC(=O)[C@H](CCCCNC(=O)[C@H](Cc1ccc(O)cc1)NC(=O)OCc1ccccc1)NC(=O)[C@H](Cc1ccc(O)cc1)NC(=O)OCc1ccccc1 [Nα,Nε-Bis-(benzyloxycarbonyl-L-tyrosyl)-L-lysine-methyl ester] (Cbz-Tyr-Lys([Tyr-Cbz])-OMe)	93	8.2	–
O=C(N[C@@H](Cc1ccc(O)cc1)C(=O)NCCCC[C@H](NC(=O)[C@H](Cc1ccc(O)cc1)NC(=O)OCc1ccccc1)C(=O)O)OCc1ccccc1 [Nα,Nε-Bis-(benzyloxycarbonyl-L-tyrosyl)-L-lysine] (Cbz-Tyr-Lys([Tyr-Cbz])-OH)	48	7.0	–
Oc1ccccc1 [Phenol]	51	8	clearly evident
O=C(CCc1ccc(O)cc1)c1c(O)cc(O)cc1O [Phloretin]	180	8.2	–
Oc1cc(O)cc(O)c1 [Phloroglucine]	15	6.6	–
Oc1cccc(O)c1O [Pyrogallol]	41	5.1	–
Oc1cccc(O)c1 [Resorcinol]	55	6.1	–
O=C(NCCN(CCN(CCNC(=O)c1c(O)cccc1O)C(=O)c1c(O)cccc1O)C(=O)c1c(O)cccc1O)c1c(O)cccc1O [Tetra-(2,6-dihydroxybenzoyl)-triethylene-tetramine]	78	8.1	–
O=C(NCCN(CCN(CCNC(=O)c1ccccc1O)C(=O)c1ccccc1O)C(=O)c1ccccc1O)c1ccccc1O [Tetra-(2-hydroxybenzoyl)-triethylene-tetramine]	91	9.0	–
O=C(NCCN(CCN(CCNC(=O)c1cc(O)cc(O)c1)C(=O)c1cc(O)cc(O)c1)C(=O)c1cc(O)cc(O)c1)c1cc(O)cc(O)c1 [Tetra-(3,5-dihydroxybenzoyl)-triethylene-tetramine]	101	9.7	–
O=C(N[C@@H](Cc1ccc(O)cc1)C(=O)NCCN(CCN(CCNC(=O)[C@H](Cc1ccc(O)cc1)NC(=O)c1cc(O)cc(O)c1)C(=O)[C@H](Cc1ccc(O)cc1)NC(=O)c1cc(O)cc(O)c1)C(=O)[C@H](Cc1ccc(O)cc1)NC(=O)c1cc(O)cc(O)c1)c1cc(O)cc(O)c1 [Tetra-(3,5-dihydroxybenzoyl-L-tyrosyl)-triethylene-tetramine]	98	9.5	–
O=C(NCCN(CCN(CCNC(=O)c1cccc(O)c1)C(=O)c1cccc(O)c1)C(=O)c1cccc(O)c1)c1cccc(O)c1 [Tetra-(3-hydroxybenzoyl-)triethylene-tetramine]	95	9.1	–

Compound	Δ% vs. control (percentage by which the pancreatic secretion is above the basal secretion after 5 hours) [%]	Rel. Intensity of effect over 5 hours (total pancreatic juice secretion over 5 hours as compared with control)	protracted and intensified action of secretin (in words) (subcutaneous secretin preparations with depot body)
O=C(NCCN(CCNC(=O)c1cc(O)cc(O)c1)C(=O)c1cc(O)cc(O)c1)c1cc(O)cc(O)c1 [Tris-(3,5-dihydroxybenzoyl-diethylene-triamine]	79	8.6	–
Bis-(2,4-dihydroxybenzoyl)-1,4-diaminobutane	83	6.7	–
Bis-(2,4-dihydroxybenzoyl-L-tyrosine)-diaminoethane	82	6.0	–
Bis-(2-carboxybenzoyl-L-tyrosine)-diaminoethane	48	6.3	–
Bis-(2-hydroxybenzoyl)-diaminoethane	72	5.9	–
Bis-(3,5-dihydroxybenzoyl)-1,4-diaminobutane	85	7.4	–
Bis-(3,5-dihydroxybenzoyl)-diaminoethane	79	6.1	–
Bis-(3,5-dihydroxybenzoyl-L-tyrosine)-diaminoethane	58	7.0	–
Bis-(3-benzoylpropionyl-L-tyrosine)-diaminoethane	60	3.7	–
Bis-(benzyloxycarbonyl-L-tyrosine)-diaminoethane	44	5.5	–
Bis-phloretin phosphate	56	2.5	–
Phloretin-3,5-dimethylphenyl phosphate	68	3.7	–
Tris-(2,8-dihydroxy-3-naphthoyl)-diethylene-triamine	94	9.4	–
Tris-(2-hydroxybenzoyl)-diethylene-triamine	62	8.1	–
Tris-(3-hydroxybenzoyl)-diethylene-triamine	71	8.0	–
Tris-(4-hydroxybenzoyl)-diethylene-triamine	68	7.8	–
